Where two headings read alike, the source gives them in different places. Square brackets hold non-standard residues; d marks the D form. Peptide text beside a SMILES is read from it. Aib = CC(C)(N)C(=O)O
Key:
[1] = target: GLP1R (Homo sapiens, UniProt P43220); test: hGLP1R potency, cAMP accumulation in CHO-K1 cells stably overexpressing hGLP1R; format: cell-based; parameters: host or cells: CHO-K1; conditions: for Selectivity: SCTR EC50/GLP1R EC50 ratio; for EC50: read-out: pEC50 hGLPR1 (converted)
Sequence of GLP1R (P43220 24-463): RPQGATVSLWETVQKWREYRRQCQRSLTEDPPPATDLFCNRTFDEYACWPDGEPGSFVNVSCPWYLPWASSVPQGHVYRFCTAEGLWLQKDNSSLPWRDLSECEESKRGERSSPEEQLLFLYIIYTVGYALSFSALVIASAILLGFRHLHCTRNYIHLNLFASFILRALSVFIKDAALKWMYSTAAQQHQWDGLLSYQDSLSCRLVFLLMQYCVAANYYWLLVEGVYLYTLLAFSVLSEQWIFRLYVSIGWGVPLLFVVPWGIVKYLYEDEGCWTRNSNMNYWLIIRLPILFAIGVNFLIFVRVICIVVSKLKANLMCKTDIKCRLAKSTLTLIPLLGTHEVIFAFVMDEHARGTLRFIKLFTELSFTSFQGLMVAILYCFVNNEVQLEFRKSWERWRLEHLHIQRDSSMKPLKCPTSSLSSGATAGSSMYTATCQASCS
Description: (§1) Crude library peptides are screened in 10-fold serial dilutions of 5 concentrations, n=1 time. Tip change is done for the first two serial dilutions. Compound starting concentration (top) will be adjusted throughout the study if needed.
(§2) Purified peptides are screened in 3-fold serial dilutions of 11 concentrations, n=2 times. Tip change is done for all serial dilutions. Compound starting concentration (top) will be adjusted throughout the study. If the top concentration is adjusted or a 5-fold difference in calculated EC50 values is observed, n is increased by 1. EC50 values were calculated by nonlinear regression using sigmoid concentration-response with variable slope.
(§3) A CHO-K1 cell line stably overexpressing the hGLP1R was obtained from Euroscreen (FAST-0145L), expanded, aliquoted and frozen. An aliquot was thawed and plated in DPBS with 0.05% casein and 0.5 mM IBMX as 2000 cells/well in a 384-well format. The cells were then immediately stimulated for 30 min at room temperature with graded doses of test compound using human GLP-1(7-36) (synthesized at Gubra) as a positive control. cAMP accumulation was measured using a Cisbio assay for Gs coupled receptors (cat. no. 62AM4PEC), where the assay reagents were added as per the manufacturer's instructions and time-resolved fluorescence energy transfer recorded after one hour on a CLARIOstar (BMG Labtech) plate reader.

[2] = target: SCTR (Homo sapiens, UniProt P47872); test: hSCTR potency, cAMP accumulation in CHO-K1 cells stably overexpressing hSCTR; format: cell-based; parameters: alternatively Euroscreen ES-712-AF; FAST-0161L; host or cells: CHO-K1; conditions: read-out: pEC50 hSCTR (converted)
Sequence of SCTR (P47872 23-440): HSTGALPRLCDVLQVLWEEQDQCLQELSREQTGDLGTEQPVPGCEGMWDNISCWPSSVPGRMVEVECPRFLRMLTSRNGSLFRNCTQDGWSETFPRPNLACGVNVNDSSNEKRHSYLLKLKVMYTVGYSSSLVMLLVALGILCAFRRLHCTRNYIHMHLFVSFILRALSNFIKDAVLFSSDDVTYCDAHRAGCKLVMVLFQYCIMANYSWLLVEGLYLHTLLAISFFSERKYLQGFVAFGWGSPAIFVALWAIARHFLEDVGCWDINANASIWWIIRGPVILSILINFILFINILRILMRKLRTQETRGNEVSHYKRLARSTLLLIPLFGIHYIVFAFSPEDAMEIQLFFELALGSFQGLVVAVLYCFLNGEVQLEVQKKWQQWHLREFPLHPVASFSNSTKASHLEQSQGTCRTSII
Description: as §1, §2
as §3, with “Frozen division arrested CHO-K1 cells stably overexpressing the hSCTR were obtained from PerkinElmer (ES-712-AF). Alternatively, a CHO-K1” for “A CHO-K1”, “the hSCTR” for “the hGLP1R”, “Euroscreen (FAST-0161L),” for “Euroscreen (FAST-0145L),”, “human secretin” for “human GLP-1(7-36)”

[3] = Table 4, position X12 variants of GUB06-046
[4] = Table 3, position X^10 variants of GUB06-046

Compound | Selectivity [1, 3] | EC50 [1, 3] [nM] | EC50 [2, 3] [nM] | Selectivity [1, 4] | EC50 [1, 4] [nM] | EC50 [2, 4] [nM]
CC[C@H](C)[C@H](NC(=O)[C@H](Cc1ccccc1)NC(=O)[C@H](CCCNC(=N)N)NC(=O)[C@H](CCC(N)=O)NC(=O)[C@H](CC(C)C)NC(=O)[C@H](C)NC(=O)[C@H](C)NC(=O)CNC(=O)[C@H](CCC(=O)O)NC(=O)[C@H](CC(C)C)NC(=O)[C@H](CC(C)C)NC(=O)[C@H](Cc1ccc(O)cc1)NC(=O)[C@H](CO)NC(=O)[C@H](CC(C)C)NC(=O)[C@H](CC(=O)O)NC(=O)[C@H](CO)NC(=O)[C@@H](NC(=O)[C@H](Cc1ccccc1)NC(=O)[C@@H](NC(=O)CNC(=O)[C@H](CCC(=O)O)NC(=O)C(C)(C)NC(=O)[C@@H](N)Cc1c[nH]cn1)[C@@H](C)O)[C@@H](C)O)C(=O)N[C@@H](CCC(N)=O)C(=O)N[C@@H](Cc1c[nH]c2ccccc12)C(=O)N[C@@H](CC(C)C)C(=O)N[C@H](C(N)=O)C(C)C [compound 229] (H-H[Aib]EGTFTSDLSYLLEGAALQRFIQWLV-NH2) | 699 | 0.0158 | 10 | – | – | –
CC[C@H](C)[C@H](NC(=O)[C@H](Cc1ccccc1)NC(=O)[C@H](CCCNC(=N)N)NC(=O)[C@H](CCC(N)=O)NC(=O)[C@H](CC(C)C)NC(=O)[C@H](C)NC(=O)[C@H](C)NC(=O)CNC(=O)[C@H](CCC(=O)O)NC(=O)[C@H](CC(C)C)NC(=O)[C@H](CC(C)C)NC(=O)C(C)(C)NC(=O)[C@H](CO)NC(=O)[C@H](CC(C)C)NC(=O)[C@H](CC(=O)O)NC(=O)[C@H](CO)NC(=O)[C@@H](NC(=O)[C@H](Cc1ccccc1)NC(=O)[C@@H](NC(=O)CNC(=O)[C@H](CCC(=O)O)NC(=O)C(C)(C)NC(=O)[C@@H](N)Cc1c[nH]cn1)[C@@H](C)O)[C@@H](C)O)C(=O)N[C@@H](CCC(N)=O)C(=O)N[C@@H](Cc1c[nH]c2ccccc12)C(=O)N[C@@H](CC(C)C)C(=O)N[C@H](C(N)=O)C(C)C [compound 223] (H-H[Aib]EGTFTSDLS[Aib]LLEGAALQRFIQWLV-NH2) | 78 | 0.0631 | 5.01 | – | – | –
CC[C@H](C)[C@H](NC(=O)[C@H](Cc1ccccc1)NC(=O)[C@H](CCCNC(=N)N)NC(=O)[C@H](CCC(N)=O)NC(=O)[C@H](CC(C)C)NC(=O)[C@H](C)NC(=O)[C@H](C)NC(=O)CNC(=O)[C@H](CCC(=O)O)NC(=O)[C@H](CC(C)C)NC(=O)[C@H](CC(C)C)NC(=O)[C@H](CCCNC(=N)N)NC(=O)[C@H](CO)NC(=O)[C@H](CC(C)C)NC(=O)[C@H](CC(=O)O)NC(=O)[C@H](CO)NC(=O)[C@@H](NC(=O)[C@H](Cc1ccccc1)NC(=O)[C@@H](NC(=O)CNC(=O)[C@H](CCC(=O)O)NC(=O)C(C)(C)NC(=O)[C@@H](N)Cc1c[nH]cn1)[C@@H](C)O)[C@@H](C)O)C(=O)N[C@@H](CCC(N)=O)C(=O)N[C@@H](Cc1c[nH]c2ccccc12)C(=O)N[C@@H](CC(C)C)C(=O)N[C@H](C(N)=O)C(C)C [compound 216] (H-H[Aib]EGTFTSDLSRLLEGAALQRFIQWLV-NH2) | 13 | 0.0398 | 0.501 | 13 | 0.0398 | 0.501
CC[C@H](C)[C@H](NC(=O)[C@H](Cc1ccccc1)NC(=O)[C@H](CCCNC(=N)N)NC(=O)[C@H](CCC(N)=O)NC(=O)[C@H](CC(C)C)NC(=O)[C@H](C)NC(=O)[C@H](C)NC(=O)CNC(=O)[C@H](CCC(=O)O)NC(=O)[C@H](CC(C)C)NC(=O)[C@H](CC(C)C)NC(=O)[C@H](CCCNC(=N)N)NC(=O)[C@H](CO)NC(=O)[C@@H]1CCCN1C(=O)[C@H](CC(=O)O)NC(=O)[C@H](CO)NC(=O)[C@@H](NC(=O)[C@H](Cc1ccccc1)NC(=O)[C@@H](NC(=O)CNC(=O)[C@H](CCC(=O)O)NC(=O)C(C)(C)NC(=O)[C@@H](N)Cc1c[nH]cn1)[C@@H](C)O)[C@@H](C)O)C(=O)N[C@@H](CCC(N)=O)C(=O)N[C@@H](Cc1c[nH]c2ccccc12)C(=O)N[C@@H](CC(C)C)C(=O)N[C@H](C(N)=O)C(C)C [compound 221] (H-H[Aib]EGTFTSDPSRLLEGAALQRFIQWLV-NH2) | – | – | – | 2086 | – | –

Results, then the compound that gave them:

Selectivity [1, 3] | EC50 [1, 3] [nM] | EC50 [2, 3] [nM] | Selectivity [1, 4] | EC50 [1, 4] [nM] | EC50 [2, 4] [nM] | Compound
– | – | – | 459 | – | – | CC[C@H](C)[C@H](NC(=O)[C@H](Cc1ccccc1)NC(=O)[C@H](CCCNC(=N)N)NC(=O)[C@H](CCC(N)=O)NC(=O)[C@H](CC(C)C)NC(=O)[C@H](C)NC(=O)[C@H](C)NC(=O)CNC(=O)[C@H](CCC(=O)O)NC(=O)[C@H](CC(C)C)NC(=O)[C@H](CC(C)C)NC(=O)[C@H](CCCNC(=N)N)NC(=O)[C@H](CO)NC(=O)[C@@H](NC(=O)[C@H](CC(=O)O)NC(=O)[C@H](CO)NC(=O)[C@@H](NC(=O)[C@H](Cc1ccccc1)NC(=O)[C@@H](NC(=O)CNC(=O)[C@H](CCC(=O)O)NC(=O)C(C)(C)NC(=O)[C@@H](N)Cc1c[nH]cn1)[C@@H](C)O)[C@@H](C)O)[C@@H](C)CC)C(=O)N[C@@H](CCC(N)=O)C(=O)N[C@@H](Cc1c[nH]c2ccccc12)C(=O)N[C@@H](CC(C)C)C(=O)N[C@H](C(N)=O)C(C)C [compound 218] (H-H[Aib]EGTFTSDISRLLEGAALQRFIQWLV-NH2)
– | – | – | 114 | – | – | CC[C@H](C)[C@H](NC(=O)[C@H](Cc1ccccc1)NC(=O)[C@H](CCCNC(=N)N)NC(=O)[C@H](CCC(N)=O)NC(=O)[C@H](CC(C)C)NC(=O)[C@H](C)NC(=O)[C@H](C)NC(=O)CNC(=O)[C@H](CCC(=O)O)NC(=O)[C@H](CC(C)C)NC(=O)[C@H](CC(C)C)NC(=O)[C@H](CCCNC(=N)N)NC(=O)[C@H](CO)NC(=O)[C@H](Cc1ccc(O)cc1)NC(=O)[C@H](CC(=O)O)NC(=O)[C@H](CO)NC(=O)[C@@H](NC(=O)[C@H](Cc1ccccc1)NC(=O)[C@@H](NC(=O)CNC(=O)[C@H](CCC(=O)O)NC(=O)C(C)(C)NC(=O)[C@@H](N)Cc1c[nH]cn1)[C@@H](C)O)[C@@H](C)O)C(=O)N[C@@H](CCC(N)=O)C(=O)N[C@@H](Cc1c[nH]c2ccccc12)C(=O)N[C@@H](CC(C)C)C(=O)N[C@H](C(N)=O)C(C)C [compound 217] (H-H[Aib]EGTFTSDYSRLLEGAALQRFIQWLV-NH2)
– | – | – | 478 | – | – | CC[C@H](C)[C@H](NC(=O)[C@H](Cc1ccccc1)NC(=O)[C@H](CCCNC(=N)N)NC(=O)[C@H](CCC(N)=O)NC(=O)[C@H](CC(C)C)NC(=O)[C@H](C)NC(=O)[C@H](C)NC(=O)CNC(=O)[C@H](CCC(=O)O)NC(=O)[C@H](CC(C)C)NC(=O)[C@H](CC(C)C)NC(=O)[C@H](CCCNC(=N)N)NC(=O)[C@H](CO)NC(=O)[C@H](Cc1c[nH]c2ccccc12)NC(=O)[C@H](CC(=O)O)NC(=O)[C@H](CO)NC(=O)[C@@H](NC(=O)[C@H](Cc1ccccc1)NC(=O)[C@@H](NC(=O)CNC(=O)[C@H](CCC(=O)O)NC(=O)C(C)(C)NC(=O)[C@@H](N)Cc1c[nH]cn1)[C@@H](C)O)[C@@H](C)O)C(=O)N[C@@H](CCC(N)=O)C(=O)N[C@@H](Cc1c[nH]c2ccccc12)C(=O)N[C@@H](CC(C)C)C(=O)N[C@H](C(N)=O)C(C)C [compound 219] (H-H[Aib]EGTFTSDWSRLLEGAALQRFIQWLV-NH2)
– | – | – | 891 | – | – | CC[C@H](C)[C@H](NC(=O)[C@H](Cc1ccccc1)NC(=O)[C@H](CCCNC(=N)N)NC(=O)[C@H](CCC(N)=O)NC(=O)[C@H](CC(C)C)NC(=O)[C@H](C)NC(=O)[C@H](C)NC(=O)CNC(=O)[C@H](CCC(=O)O)NC(=O)[C@H](CC(C)C)NC(=O)[C@H](CC(C)C)NC(=O)[C@H](CCCNC(=N)N)NC(=O)[C@H](CO)NC(=O)[C@@H](NC(=O)[C@H](CC(=O)O)NC(=O)[C@H](CO)NC(=O)[C@@H](NC(=O)[C@H](Cc1ccccc1)NC(=O)[C@@H](NC(=O)CNC(=O)[C@H](CCC(=O)O)NC(=O)C(C)(C)NC(=O)[C@@H](N)Cc1c[nH]cn1)[C@@H](C)O)[C@@H](C)O)C(C)C)C(=O)N[C@@H](CCC(N)=O)C(=O)N[C@@H](Cc1c[nH]c2ccccc12)C(=O)N[C@@H](CC(C)C)C(=O)N[C@H](C(N)=O)C(C)C [compound 220] (H-H[Aib]EGTFTSDVSRLLEGAALQRFIQWLV-NH2)
